The subject of the test is HELA cells. The test is described as follows: HELA cell proliferation assay (CellTitre-Glo, 6 days). Format: cell-based. The note with it: Homo sapiens, 144 h.
The mark [1] stands for this setting: HELA cells, 6 days treatment, CellTitre-Glo, read-out: HeLa pIC50 (converted).

Counter-ions that a name gives are not always drawn. Like-named read-outs stand apart in the source and are kept apart here.

In the case of `Nc1nc(NC2(c3cccc(C(F)(F)F)n3)CC2)nc(-c2ccc3cn[nH]c3c2)n1` [Example 1, 6-(1H-indazol-6-yl)-N2-[1-[6-(trifluoromethyl)-2-pyridyl]cyclopropyl]-1,3,5-triazine-2,4-diamine hydrochloride], the IC50 (HeLa, read-out: HeLa pIC50 (M) (converted)) was 1.07e-06 M. Turning to `COc1cccc(CNc2nc(N)nc(-c3ccc4cn[nH]c4c3)n2)c1F` [Example 85, N2-[(2-Fluoro-3-methoxy-phenyl)methyl]-6-(1H-indazol-6-yl)-1,3,5-triazine-2,4-diamine], the IC50 under setting [1] was 1.58e-06 M. Regarding `Nc1nc(NC2COc3cc(F)ccc32)nc(-c2ccc3cn[nH]c3c2)n1` (stereo not shown) [Example 89, N2-(6-fluoro-2,3-dihydrobenzofuran-3-yl)-6-(1H-indazol-6-yl)-1,3,5-triazine-2,4-diamine], the IC50 under setting [1] is 8.51e-07 M. On the same count and under the same terms, to `Nc1nc(NCc2ccn(C(F)F)n2)nc(-c2ccc3cncn3c2)n1` [Example 74, N2-[[1-(difluoromethyl)pyrazol-3-yl]methyl]-6-imidazo[1,5-a]pyridin-6-yl-1,3,5-tria zine-2,4-diaminediamine] belongs 4.9e-07 M.
